How the values were obtained:
[1] = biological target: T1, recombinant human CD38 Protein (Homo sapiens, UniProt P28907); assay: Fluorescence-based NAD+ cyclase activity assay with human recombinant CD38 protein (Assay 2); type: biochemical; settings: read-out: Assay 2 Arithmetic mean IC50
T1 construct: purchased R&D System
T1 sequence (P28907 1-300): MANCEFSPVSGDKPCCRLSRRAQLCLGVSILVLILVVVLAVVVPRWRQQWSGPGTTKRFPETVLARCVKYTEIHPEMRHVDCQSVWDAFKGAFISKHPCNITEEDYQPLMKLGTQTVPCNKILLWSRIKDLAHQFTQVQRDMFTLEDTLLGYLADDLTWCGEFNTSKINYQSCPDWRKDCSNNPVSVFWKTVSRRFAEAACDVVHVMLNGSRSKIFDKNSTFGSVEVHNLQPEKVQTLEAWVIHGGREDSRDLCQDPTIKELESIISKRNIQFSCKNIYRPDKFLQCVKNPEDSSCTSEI
Protocol: This protocol was modified from the de Oliveira et al., 2018 reference, supra.
(§1) NAD+ cyclase activity of the human recombinant CD38 protein treated with test compounds was measured using a fluorescence-based assay. Briefly, recombinant human CD38 Protein (R&D System) was resuspended in 44 μl/well of Sucrose-Tris Buffer (Sucrose 0.25 M, Tris pH 7.4 40 mM) and plated in a 96-well black plate (CORNING) at a density of 125 ng/well.
Each test compound was received in a powder state and dissolved in DMSO as a 25 mM stock solution. Each test compound was serially diluted in order to generate a dose-response curve. The dilution series of each test compound in DMSO was prepared at 50 times the concentrations to be assayed. Each test compound was diluted to generate a 5-fold dilution series of 8 concentrations from 100 μM to 32 nM in order to assay 8 final concentrations ranging from 2 μM to 0.64 nM. One μl of the 50× concentration compound series was added to each well of the plate containing 125 ng of protein in Sucrose-Tris buffer.
The reaction was started adding nicotinamide guanine dinucleotide (NGD+) (Sigma Aldrich) to reach a final concentration of 150 µM. The samples were excited at 337-15 nm, and the emission of fluorescence was measured at 442-20 nm at 37° C. every minute for 1 hr in a Clariostar microplate reader (BMG LABTECH). NAD+ cyclase activity was calculated as the slope of the linear portion of the fluorescence-time curve using the MARS data analysis software (BMG LABTECH). The data were uploaded in the Collaborative Drug Design (CDD) Software, and for each compound the IC50 was calculated by the software. For each plate, the z-factor was also calculated as a plate quality using the CDD software.

[2] = biological target: T1, recombinant human CD38 Protein; assay: Fluorescence-based NAD+ hydrolase activity assay with human recombinant CD38 protein (Assay 3); type: biochemical; settings: read-out: Assay 3 Arithmetic mean IC50
Protocol: This protocol was modified from the following references (Muller et al. (1983); (Schultz et al. (2018); (Matalonga et al. (2017); and de Oliveira et al. (2018), supra.
as §1, with “hydrolase” for “cyclase”, “10” for “125”
(§2) Each test compound was received in a powder state and dissolved in DMSO as a 25 mM stock solution. Each test compound was serially diluted in order to generate a dose-response curve. The dilution series of each test compound in DMSO was prepared at 50× the concentrations to be assayed. Each test compound was diluted to generate a 5-fold dilution series of 8 concentrations from 20 μM to 0.256 nM in order to assay 8 final concentrations ranging from ranging from 400 nM to 25.6 pM. One μl of the 50× concentration compound series was added to each well of the plate containing 10 ng protein in Sucrose-Tris buffer.
The reaction was started adding nicotinamide 1,N^6-etheno-adenine dinucleotide (Sigma Aldrich) to reach a final concentration of 80 µM. The samples were excited at 321-15 nm and the emission of fluorescence was measured at 410-20 nm at 37° C. every minute for 1 hr in a Clariostar® microplate reader (BMG LABTECH). NAD+ hydrolase activity was calculated as the slope of the linear portion of the fluorescence-time curve using the MARS data analysis software (BMG LABTECH). The data were uploaded in the Collaborative Drug Design (CDD) Software and for each compound the IC50 was calculated by the software. […] For each plate, the z-factor was also calculated as a plate quality using the CDD software.

[3] = biological target: T2, CD38 NAD+ hydrolase activity in NH7-dCas9 cells (Jurkat clone) (Homo sapiens, UniProt P28907); assay: Fluorescence-based NAD+ hydrolase activity assay with human T cell line NH7-dCas9 cells-Jurkat clone (Assay 1); settings: read-out: Assay 1 Arithmetic mean IC50
T2 construct: The assay utilized CD38 expressing NH7-dCas9 cells (Jurkat clone); host or cells: NH7-dCas9 cells (Jurkat clone)
T2 sequence (P28907 1-300): T1 sequence (P28907 1-300)
Protocol: For the modified assay, the performance validation criteria of the assay as a High Throughput Screening (HTS): Z-factor within the plate was greater than 0.89 (optimal HTS z-factor >0.5) and the Intra-plate, inter-plate and day to day variability (CV) was less than 20%.
NAD+ hydrolase activity of a human T cell line treated with test compounds was measured using a fluorescence-based assay. NH7-dCas9 cells (Jurkat clone) were provided by the Weissman Lab (UCSF 1700 4th St., Byers Hall, Room 403B, San Francisco, CA 94158-2330). Briefly, cells were centrifuged, resuspended in 44 μl PBS/10^6 cells and plated in a 96 well black plate (CORNING) at a density of 1×10^6 per well.
as §2, with “at 50 times” for “at 50×”, “from” for “from ranging from”, “containing 1×10^6 cells” for “containing 10 ng protein”, “in PBS.” for “in Sucrose-Tris buffer.”
Each plate had the following intra plate controls: 3 wells containing cells treated with vehicle only (DMSO), 3 wells of cells treated with the reference compound 78c at a final concentration of 50 nM and 2 wells containing only PBS (used as a background value).
(§3) The reaction was started by adding nicotinamide 1,N^6-etheno-adenine dinucleotide (Sigma Aldrich) to reach a final concentration of 80 µM. The samples were excited at 321-15 nm, and the emission of fluorescence was measured at 410-20 nm at 37° C. every minute for 1 hr in a Clariostar® microplate reader (BMG LABTECH). NAD+ hydrolase activity was calculated as the slope of the linear portion of the fluorescence-time curve using the MARS data analysis software (BMG LABTECH). The data were uploaded in the Collaborative Drug Design (CDD) Software and for each compound the IC50 was calculated by the software. Each compound was tested in 3 independent experiments on 3 separate days to establish the reproducibility of the results. For each plate, the z-factor was also calculated as a plate quality using the CDD software.

[4] = biological target: T3, recombinant mouse CD38 Protein (Mus musculus, UniProt P56528); assay: Fluorescence-based NAD+ hydrolase activity assay with mouse recombinant CD38 protein (Assay 5); type: biochemical; settings: read-out: Assay 5 Arithmetic mean IC50
T3 construct: purchased R&D System
T3 sequence (P56528 1-304): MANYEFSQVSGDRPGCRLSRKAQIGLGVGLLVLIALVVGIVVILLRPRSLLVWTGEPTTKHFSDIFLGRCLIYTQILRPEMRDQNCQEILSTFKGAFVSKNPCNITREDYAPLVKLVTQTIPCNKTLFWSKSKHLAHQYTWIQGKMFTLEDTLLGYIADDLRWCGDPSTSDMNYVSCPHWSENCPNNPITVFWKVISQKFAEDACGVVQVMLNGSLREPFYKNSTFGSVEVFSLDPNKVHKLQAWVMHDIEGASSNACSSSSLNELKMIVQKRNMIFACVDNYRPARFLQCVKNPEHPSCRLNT
Protocol: This protocol was modified from the following references: Muller et al. (1983); Schultz et al. (2018); Matalonga et al. (2017); and de Oliveira et al. (2018), supra.
as §1, with “hydrolase” for “cyclase”, “mouse” for “human”, “96 well” for “96-well”, “2.5” for “125”
Each test compound was received in a powder state and dissolved in DMSO as a 25 mM stock solution. Each test compound was serially diluted in order to generate a dose-response curve. The dilution series of each test compound in DMSO was prepared at 50 times the concentrations to be assayed. Each test compound was diluted to generate a 5-fold dilution series of 8 concentrations from 20 μM to 0.256 nM in order to assay 8 final concentrations ranging from 400 nM to 25.6 pM. One μl of the 50× concentration compound series was added to each well of the plate containing 2.5 ng of protein in Sucrose-Tris buffer.
Each plate had the following intra plate controls: 3 wells containing cells treated with vehicle only (DMSO), 3 wells of cells treated with the reference compounds 78c at a final concentration of 50 nM and 2 wells containing only Sucrose-Tris buffer (used as a background value).
as §3, with “started” for “started by”, “nm” for “nm,”, “Clariostar Microplate®” for “Clariostar® microplate”

Compound	IC50 [1] [nM]	IC50 [2] [nM]	IC50 [3] [nM]	IC50 [4] [nM]
Cc1cc(NC(=O)c2cccc(-n3ccnc3)n2)cc(C#N)n1 [Compound 4]	51 to 1000	< 1	< 1	
O=C(Nc1cc(F)nc(F)c1)c1cccc(-n2ccnc2)n1 [Compound 5]	51 to 1000	< 1	< 1	
CCOC(=O)c1cc(NC(=O)c2cccc(-n3ccnc3)n2)ccn1 [Compound 6]	51 to 1000	1 to 50	< 1	
COCCNc1cc(NC(=O)c2cccc(-n3ccnc3)n2)ccn1 [Compound 10]		1 to 50	1 to 50	
NC(=O)c1cc(NC(=O)c2cccc(-n3ccnc3)n2)ccn1 [Compound 17]		1 to 50	1 to 50	1 to 50
CCN(C(C)=O)c1ccc(NC(=O)c2cccc(-n3ccnc3)n2)cn1 [Compound 19]		1 to 50	1 to 50	1 to 50
O=C(O)c1ccc(NC(=O)c2cccc(-n3ccnc3)n2)cn1 [Compound 21]		1 to 50	1 to 50	1 to 50
CNC(=O)c1cc(NC(=O)c2cccc(-n3ccnc3)n2)ccn1 [Compound 23]		1 to 50	1 to 50	
O=C(Nc1ccccn1)c1cccc(-n2ccnc2)n1 [Compound 25]		51 to 1000	51 to 1000	
Cc1cncn1-c1cccc(C(=O)Nc2cccnc2)n1 [Compound 26]		51 to 1000	51 to 1000	51 to 1000
Cc1cc(C(=O)Nc2ccncc2)nc(-c2cncn2C)c1 [Compound 44]		1 to 50	< 1	1 to 50
O=C(Nc1ccc(C(F)(F)F)nc1)c1cccc(-c2cncs2)n1 [Compound 46]		1 to 50		
Cc1ccc(C(=O)Nc2cccnc2)nc1-n1ccnc1 [Compound 58, 6-(1H-imidazol-1-yl)-5-methyl-N-(pyridin-3-yl)picolinamide]		51 to 1000	51 to 1000	1 to 50
COc1ccc(C(=O)Nc2cccnc2)nc1-n1ccnc1 [Compound 60]		51 to 1000	51 to 1000	1 to 50
COc1ccc(-n2ccnc2)nc1C(=O)Nc1cccnc1 [Compound 63]		1 to 50	1 to 50	1 to 50
Nc1ccc(-n2ccnc2)nc1C(=O)Nc1ccncc1 [Compound 64, 3-amino-6-(1H-imidazol-1-yl)-N-(pyridin-4-yl)picolinamide]		1 to 50	< 1	< 1
Nc1ccc(-n2ccnc2)nc1C(=O)Nc1ccnc(F)c1 [Compound 65]		< 1	< 1	< 1
Nc1ccc(-n2ccnc2)nc1C(=O)Nc1ccnc(C(F)(F)F)c1 [Compound 66]		1 to 50	< 1	< 1
CNc1cc(C(=O)Nc2cccnc2)nc(-n2ccnc2)c1 [Compound 68]		< 1	< 1	
O=C(Nc1cccnc1)c1ccnc(-n2ccnc2)n1 [Compound 69]		1 to 50	< 1	
O=C(Nc1cccnc1)c1cncc(-n2ccnc2)n1 [Compound 70]	1000 to 10000	< 1	< 1	
